Laboratory results published in ChEMBL document CHEMBL1201862, “PubChem BioAssay data set” (2004).
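Exposure lasted 48 hours, with cells grown in 96-well plates and compounds tested at five concentrations. At the GI50, growth is halved.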 The source made the active and inactive calls. Rule as the data show it: active = GI50 up to about 1.1 µM and inactive = higher.

Key:
Test in all cases: NCI tumour cell line growth inhibition, 48 h
[1] = system: CAKI-1
[2] = system: COLO 205
[3] = system: EKVX
[4] = system: HCC 2998
[5] = system: HL-60
[6] = system: HOP-62
[7] = system: HT-29
[8] = system: Hs-578T
[9] = system: IGROV-1
[10] = system: K562
[11] = system: KM12
[12] = system: OVCAR-5
[13] = system: PC-3
[14] = system: SF-268
[15] = system: SF-539
[16] = system: SK-MEL-5
[17] = system: SK-OV-3
[18] = system: SNB-75
[19] = system: SW-620
[20] = system: UO-31

SMILES | GI50 [1] | GI50 [2] | GI50 [3] | GI50 [4] | GI50 [5] | GI50 [6] | GI50 [7] | GI50 [8] | GI50 [9] | GI50 [10] | GI50 [11] | GI50 [12] | GI50 [13] | GI50 [14] | GI50 [15] | GI50 [16] | GI50 [17] | GI50 [18] | GI50 [19] | GI50 [20]
N#CCCC1C(C#N)C2(Cl)CC1(Cl)C(Cl)=C2Cl (stereo not drawn) | > 10 µM (inactive) | > 10 µM (inactive) | > 10 µM (inactive) | > 10 µM (inactive) | > 10 µM (inactive) | > 10 µM (inactive) | > 10 µM (inactive) | > 10 µM (inactive) | > 10 µM (inactive) | > 10 µM (inactive) | > 10 µM (inactive) | > 10 µM (inactive) | > 10 µM (inactive) | > 10 µM (inactive) | > 10 µM (inactive) | > 10 µM (inactive) | > 10 µM (inactive) | > 10 µM (inactive) | > 10 µM (inactive) | > 10 µM (inactive)
CC1CC[C@@]2(OC1)OC1C[C@H]3[C@@H]4CC=C5CC(OC6OC(CO)C(OC7OC(CO)C(O)C(OC8OCC(O)C(O)C8O)C7OC7OC(CO)C(O)C(O)C7O)C(O)C6O)CCC5(C)[C@H]4CCC3(C)C1[C@@H]2C (stereo partly drawn) | 4.95 µM (inactive) | 4.59 µM (inactive) | 4.67 µM (inactive) | 4.68 µM (inactive) | 4.9 µM (inactive) | 4.09 µM (inactive) | 5.08 µM (inactive) | 4.66 µM (inactive) | 3.94 µM (inactive) | 7.23 µM (inactive) | 5.32 µM (inactive) | 8.51 µM (inactive) | 4.06 µM (inactive) | 4.84 µM (inactive) | 3.6 µM (inactive) | 4.67 µM (inactive) | 6.55 µM (inactive) | 7.69 µM (inactive) | 3.98 µM (inactive) | 
COC(c1ccc(C(C)(C)C)cc1)(c1ccc(C(C)(C)C)cc1)c1cc(C(O)(c2cc(C(OC)(c3ccc(C(C)(C)C)cc3)c3ccc(C(C)(C)C)cc3)c(C)cc2C)c2cc(C(OC)(c3ccc(C(C)(C)C)cc3)c3ccc(C(C)(C)C)cc3)c(C)cc2C)c(C)cc1C | > 100 µM (inactive) | > 100 µM (inactive) | > 100 µM (inactive) | > 100 µM (inactive) | > 100 µM (inactive) | > 100 µM (inactive) | > 100 µM (inactive) | > 100 µM (inactive) | > 100 µM (inactive) | > 100 µM (inactive) |  | > 100 µM (inactive) | > 100 µM (inactive) | > 100 µM (inactive) | > 100 µM (inactive) | > 100 µM (inactive) | > 100 µM (inactive) | 28.3 µM (inactive) | > 100 µM (inactive) | > 100 µM (inactive)
CCOC(=O)c1csc(NC(=O)CN(C)C)n1 | > 100 µM (inactive) | > 100 µM (inactive) | > 100 µM (inactive) | > 100 µM (inactive) | > 100 µM (inactive) | > 100 µM (inactive) | > 100 µM (inactive) | > 100 µM (inactive) | > 100 µM (inactive) | > 100 µM (inactive) | > 100 µM (inactive) | > 100 µM (inactive) | > 100 µM (inactive) | > 100 µM (inactive) | > 100 µM (inactive) | > 100 µM (inactive) | > 100 µM (inactive) | > 100 µM (inactive) | > 100 µM (inactive) | > 100 µM (inactive)
COc1ccc2c(c1)C1=NCCN(CCO)c3ccc([N+](=O)[O-])c(c31)N2 | 0.366 µM (active) | 0.298 µM (active) | 0.705 µM (active) | 0.574 µM (active) | 0.34 µM (active) | 0.462 µM (active) | 0.324 µM (active) | 0.693 µM (active) | 0.519 µM (active) | 0.222 µM (active) | 0.505 µM (active) | 0.728 µM (active) | 0.34 µM (active) | 0.752 µM (active) | 0.415 µM (active) | 0.366 µM (active) | 0.574 µM (active) | 0.578 µM (active) | 0.187 µM (active) | 0.265 µM (active)
